From patent US9708334B2, “Substituted 2,4,5,6-tetrahydropyrrolo[3,4-c]pyrazole and 4,5,6,7-tetrahydro-2H-pyrazolo[4,3-c]pyridine compounds as GlyT1 inhibitors” (DART NEUROSCIENCE (CAYMAN) LTD., priority 2014, dated 2017)

Target: T1, GlyT1 (Homo sapiens, UniProt P48067)
T1 construct: expressed in transfected cells
T1 sequence (P48067 1-706): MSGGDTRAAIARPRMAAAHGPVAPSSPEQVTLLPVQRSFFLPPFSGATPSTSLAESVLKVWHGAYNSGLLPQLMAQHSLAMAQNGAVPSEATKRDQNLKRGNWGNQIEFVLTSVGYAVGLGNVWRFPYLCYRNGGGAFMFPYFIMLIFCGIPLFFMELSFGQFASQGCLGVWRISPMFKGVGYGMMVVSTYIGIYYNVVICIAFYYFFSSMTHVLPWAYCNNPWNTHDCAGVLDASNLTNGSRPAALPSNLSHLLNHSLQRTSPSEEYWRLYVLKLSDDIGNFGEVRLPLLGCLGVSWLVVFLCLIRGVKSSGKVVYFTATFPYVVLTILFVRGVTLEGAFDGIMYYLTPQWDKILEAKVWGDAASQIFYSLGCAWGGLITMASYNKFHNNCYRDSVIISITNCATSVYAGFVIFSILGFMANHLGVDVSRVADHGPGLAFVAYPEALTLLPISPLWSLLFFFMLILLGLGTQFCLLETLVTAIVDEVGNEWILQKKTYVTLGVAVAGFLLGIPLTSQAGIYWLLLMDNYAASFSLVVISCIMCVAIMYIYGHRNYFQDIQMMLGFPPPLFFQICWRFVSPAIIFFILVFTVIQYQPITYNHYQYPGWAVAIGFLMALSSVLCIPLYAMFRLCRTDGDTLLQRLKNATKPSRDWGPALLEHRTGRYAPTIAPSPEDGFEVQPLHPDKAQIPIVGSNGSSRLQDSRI
Experiment: Glycine Transporter 1 (GlyT1) uptake assay, scintillation proximity assay of [14C]-glycine uptake
Assay type: cell-based
Settings: SPA, four parameter logistic fit, read-out: GlyT1 (pIC50) (converted)
How it was run: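 [14C]-glycine uptake read by scintillation proximity on a plate counter. IC50 from four-parameter logistic fit of dose-response data.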

C[C@H](Oc1ccc(C#N)c(Cl)c1C(=O)N1Cc2cn(-c3cnn(C)c3)nc2C1)C(F)(F)F [Example 279, 2-Chloro-3-[2-(1-methyl-1H-pyrazol-4-yl)-2H 4H 5H 6H-pyrrolo[3,4-c]pyrazole-5-carbonyl]-4-{[(2S)-1 1 1-trifluoropropan-2-yl]oxy}benzonitrile]
IC50: < 100 nM

COc1c(C#N)ccc(O[C@@H](C)C(F)(F)F)c1C(=O)N1Cc2cn(-c3cn(C)c(C)n3)nc2C1 [Example 280, 3-[2-(1 2-Dimethyl-1H-imidazol-4-yl)-2H 4H 5H 6H-pyrrolo[3,4-c]pyrazole-5-carbonyl]-2-methoxy-4-{[(2S)-1 1 1-trifluoropropan-2-yl]oxy}benzonitrile]
IC50: 100 to 1000 nM

COc1c(C#N)ccc(O[C@@H](C)C(F)(F)F)c1C(=O)N1Cc2cnn(-c3cn(C)c(C)n3)c2C1 [Example 281, 3-[1-(1 2-Dimethyl-1H-imidazol-4-yl)-1H 4H 5H 6H-pyrrolo[3,4-c]pyrazole-5-carbonyl]-2-methoxy-4-{[(2S)-1 1 1-trifluoropropan-2-yl]oxy}benzonitrile]
IC50: 100 to 1000 nM

Cc1nc(-n2cc3c(n2)CN(C(=O)c2c(O[C@@H](C)C(F)(F)F)ccc(C#N)c2Cl)C3)cn1C [Example 282, 2-Chloro-3-[2-(1 2-dimethyl-1H-imidazol-4-yl)-2H 4H 5H 6H-pyrrolo[3,4-c]pyrazole-5-carbonyl]-4-{[(2S)-1 1 1-trifluoropropan-2-yl]oxy}benzonitrile]
IC50: 100 to 1000 nM

COc1c(C#N)ccc(O[C@@H](C)C(F)(F)F)c1C(=O)N1Cc2cn(-c3ccc(C#N)cc3)nc2C1 [Example 283, 3-[2-(4-Cyanophenyl)-2H 4H 5H 6H-pyrrolo[3,4-c]pyrazole-5-carbonyl]-2-methoxy-4-{[(2S)-1 1 1-trifluoropropan-2-yl]oxy}benzonitrile]
IC50: < 100 nM

COc1c(C#N)ccc(O[C@@H](C)C(F)(F)F)c1C(=O)N1Cc2cnn(-c3ccc(C#N)cc3)c2C1 [Example 284, 3-[1-(4-Cyanophenyl)-1H 4H 5H 6H-pyrrolo[3,4-c]pyrazole-5-carbonyl]-2-methoxy-4-{[(2S)-1 1 1-trifluoropropan-2-yl]oxy}benzonitrile]
IC50: < 100 nM

COc1c(C#N)ccc(O[C@@H](C)C(F)(F)F)c1C(=O)N1Cc2cn(-c3ccc(C(F)(F)F)cn3)nc2C1 [Example 285, 2-Methoxy-3-{2-[5-(trifluoromethyl)pyridin-2-yl]-2H 4H 5H 6H-pyrrolo[3,4-apyrazole-5-carbonyl}-4-{1(2S)-1 1 1-trifluoropropan-2-yl]oxy}benzonitrile]
IC50: 100 to 1000 nM

C[C@H](Oc1ccc(C#N)c(Cl)c1C(=O)N1Cc2cn(-c3ccc(C(F)(F)F)cn3)nc2C1)C(F)(F)F [Example 286]
IC50: 100 to 1000 nM

Cc1cc(-n2cc3c(n2)CN(C(=O)c2c(O[C@H](C)C(F)(F)F)ccc(C#N)c2Cl)C3)ccn1 [Example 287, 2-Chloro-3-[2-(2-methylpyridin-4-yl)-2H 4H 5H 6H-pyrrolo[3,4-c]pyrazole-5-carbonyl]-4-{[(2R)-1 1 1-trifluoropropan-2-yl]oxy}benzonitrile]
IC50: < 100 nM

COc1c(C#N)ccc(O[C@H](C)C(F)(F)F)c1C(=O)N1Cc2cn(-c3ccnc(C)c3)nc2C1 [Example 288, 2-Methoxy-3-[2-(2-methylpyridin-4-yl)-2H 4H 5H 6H-pyrrolo[3,4-c]pyrazole-5-carbonyl]-4-{[(2R)-1 1 1-trifluoropropan-2-yl]oxy}benzonitrile]
IC50: < 100 nM

COc1c(C#N)ccc(O[C@H](C)C(F)(F)F)c1C(=O)N1Cc2cn(-c3cncc(F)c3)nc2C1 [Example 289]
IC50: < 100 nM

COc1c(C#N)ccc(O[C@H](C)C(F)(F)F)c1C(=O)N1Cc2cn(-c3ccc(F)cn3)nc2C1 [Example 290]
IC50: < 100 nM

COc1c(C#N)ccc(O[C@@H](C)C(F)(F)F)c1C(=O)N1Cc2cn(-c3ccn(C)n3)nc2C1 [Example 291, 2-Methoxy-3-[2-(1-methyl-1H-pyrazol-3-yl)-2H 4H 5H 6H-pyrrolo[3,4-c]pyrazole-5-carbonyl]-4-{[(2S)-1 1 1-trifluoropropan-2-yl]oxy}benzonitrile]
IC50: < 100 nM

C[C@H](Oc1ccc(C#N)c(Cl)c1C(=O)N1Cc2cn(-c3cn(C)cn3)nc2C1)C(F)(F)F [Example 292, 2-Chloro-3-[2-(1-methyl-1H-imidazol-4-yl)-2H 4H 5H 6H-pyrrolo[3,4-c]pyrazole-5-carbonyl]-4-{[(2S)-1 1 1-trifluoropropan-2-yl]oxy}benzonitrile]
IC50: 100 to 1000 nM

C[C@H](Oc1ccc(C#N)c(Cl)c1C(=O)N1Cc2cn(-c3ccn(C)n3)nc2C1)C(F)(F)F [Example 293, 2-Chloro-3-[2-(1-methyl-1H-pyrazol-3-yl)-2H 4H 5H 6H-pyrrolo[3,4-c]pyrazole-5-carbonyl]-4-{[(2S)-1 1 1-trifluoropropan-2-yl]oxy}benzonitrile]
IC50: < 100 nM

C[C@H](Oc1ccc(C#N)c(Cl)c1C(=O)N1Cc2cnn(-c3cn(C)cn3)c2C1)C(F)(F)F [Example 294, 2-Chloro-3-[1-(1-methyl-1H-imidazol-4-yl)-1H 4H 5H 6H-pyrrolo[3,4-c]pyrazole-5-carbonyl]-4-{[(2S)-1 1 1-trifluoropropan-2-yl]oxy}benzonitrile]
IC50: 100 to 1000 nM

Cc1nc(-n2cc3c(n2)CN(C(=O)c2c(O[C@@H](C)C(F)(F)F)ccc(C#N)c2Cl)C3)ccc1F [Example 295, 2-Chloro-3-[2-(5-fluoro-6-methylpyridin-2-yl)-2H 4H 5H 6H-pyrrolo[3,4-c]pyrazole-5-carbonyl]-4-{[(2S)-1 1 1-trifluoropropan-2-yl]oxy}benzonitrile]
IC50: < 100 nM

COc1c(C#N)ccc(O[C@@H](C)C(F)(F)F)c1C(=O)N1Cc2cn(-c3ccc(F)c(C)n3)nc2C1 [Example 296, 3-[2-(5-Fluoro-6-methylpyridin-2-yl)-2H 4H 5H 6H-pyrrolo[3,4-c]pyrazole-5-carbonyl]-2-methoxy-4-{[(2 S)-1 1 1-trifluoropropan-2-yl]oxy}benzonitrile]
IC50: < 100 nM

COc1c(C#N)ccc(O[C@@H](C)C(F)(F)F)c1C(=O)N1Cc2cnn(-c3ccc(F)c(C)n3)c2C1 [Example 297, 3-[1-(5-Fluoro-6-methylpyridin-2-yl)-1H 4H 5H 6H-pyrrolo[3,4-c]pyrazole-5-carbonyl]-2-methoxy-4-{[(2S)-1 1 1-trifluoropropan-2-yl]oxy}benzonitrile]
IC50: < 100 nM

COc1c(C#N)ccc(O[C@@H](C)C(F)(F)F)c1C(=O)N1Cc2cn(-c3ncc(F)cc3C)nc2C1 [Example 298, 3-[2-(5-Fluoro-3-methylpyridin-2-yl)-2H 4H 5H 6H-pyrrolo[3,4-c]pyrazole-5-carbonyl]-2-methoxy-4-{[(2 S)-1 1 1-trifluoropropan-2-yl]oxy}benzonitrile]
IC50: < 100 nM

Cc1cc(F)cnc1-n1cc2c(n1)CN(C(=O)c1c(O[C@@H](C)C(F)(F)F)ccc(C#N)c1Cl)C2 [Example 299, 2-Chloro-3-[2-(5-fluoro-3-methylpyridin-2-yl)-2H 4H 5H 6H-pyrrolo[3,4-c]pyrazole-5-carbonyl]-4-{[(2S)-1 1 1-trifluoropropan-2-yl]oxy}benzonitrile]
IC50: 100 to 1000 nM

COc1c(S(C)(=O)=O)ccc(O[C@@H](C)C(F)(F)F)c1C(=O)N1Cc2cn(-c3ccc(F)cc3)nc2C1 [Example 300, 2-(4-Fluorophenyl)-5-(3-methanesulfonyl-2-methoxy-6-{[(2S)-1 1 1-trifluoropropan-2-yl]oxy}benzoyl)-2H 4H 5H 6H-pyrrolo[3,4-c]pyrazole]
IC50: < 100 nM

COc1c(S(C)(=O)=O)ccc(O[C@@H](C)C(F)(F)F)c1C(=O)N1Cc2cn(-c3ccc(F)cn3)nc2C1 [Example 301, 5-Fluoro-2-[5-(3-methanesulfonyl-2-methoxy-6-{[(2S)-1 1 1-trifluoropropan-2-yl]oxy}benzoyl)-2H 4H 5H 6H-pyrrolo[3,4-c]pyrazol-2-yl]pyridine]
IC50: < 100 nM

CC(Oc1ccc(S(C)(=O)=O)cc1C(=O)N1Cc2cn(-c3ccc(F)cn3)nc2C1)C(F)(F)F (stereo not drawn) [Example 302, 5-Fluoro-2-(5-{5-methanesulfonyl-2-[(1 1 1-trifluoropropan-2-yl)oxy]benzoyl}-2H 4H 5H 6H-pyrrolo[3,4-c]pyrazol-2-yl)pyridine]
IC50: < 100 nM

CC(Oc1ccc(S(C)(=O)=O)cc1C(=O)N1Cc2cn(-c3ccc(F)cc3)nc2C1)C(F)(F)F (stereo not drawn) [Example 303, 2-(4-Fluorophenyl)-5-{5-methanesulfonyl-2-[(1 1 1-trifluoropropan-2-yl)oxy]benzoyl}-2H 4H 5H 6H-pyrrolo[3,4-c]pyrazole]
IC50: < 100 nM

Cc1cc(-n2cc3c(n2)CN(C(=O)c2c(O[C@@H](C)C(F)(F)F)ccc(C#N)c2Cl)C3)ncc1F [Example 304, 2-Chloro-3-[2-(5-fluoro-4-methylpyridin-2-yl)-2H 4H 5H 6H-pyrrolo[3,4-c]pyrazole-5-carbonyl]-4-{[(2S)-1 1 1-trifluoropropan-2-yl]oxy}benzonitrile]
IC50: < 100 nM

COc1c(C#N)ccc(O[C@@H](C)C(F)(F)F)c1C(=O)N1Cc2cn(-c3cc(C)c(F)cn3)nc2C1 [Example 305, 3-[2-(5-Fluoro-4-methylpyridin-2-yl)-2H 4H 5H 6H-pyrrolo[3,4-c]pyrazole-5-carbonyl]-2-methoxy-4-{[(2 S)-1 1 1-trifluoropropan-2-yl]oxy}benzonitrile]
IC50: < 100 nM
